# Experimental data reported in patent US20240116985A1, “STAPLED PEPTIDES AND METHODS THEREOF” (priority 2020, published 2024).
# Read-outs that look alike come from different tables or passages of the source.
# Tests used:
# [1] = biological target: T1, full-length beta-Catenin (Uniprot ID P35222) (Homo sapiens, UniProt P35222); experiment: Fluorescence polarization IC50 (beta-catenin / 5FAM-TCF4 10-53 competition); type: binding
# T1 construct: 10 nM full-length beta-Catenin (Uniprot ID P35222)
# T1 sequence (P35222 1-781): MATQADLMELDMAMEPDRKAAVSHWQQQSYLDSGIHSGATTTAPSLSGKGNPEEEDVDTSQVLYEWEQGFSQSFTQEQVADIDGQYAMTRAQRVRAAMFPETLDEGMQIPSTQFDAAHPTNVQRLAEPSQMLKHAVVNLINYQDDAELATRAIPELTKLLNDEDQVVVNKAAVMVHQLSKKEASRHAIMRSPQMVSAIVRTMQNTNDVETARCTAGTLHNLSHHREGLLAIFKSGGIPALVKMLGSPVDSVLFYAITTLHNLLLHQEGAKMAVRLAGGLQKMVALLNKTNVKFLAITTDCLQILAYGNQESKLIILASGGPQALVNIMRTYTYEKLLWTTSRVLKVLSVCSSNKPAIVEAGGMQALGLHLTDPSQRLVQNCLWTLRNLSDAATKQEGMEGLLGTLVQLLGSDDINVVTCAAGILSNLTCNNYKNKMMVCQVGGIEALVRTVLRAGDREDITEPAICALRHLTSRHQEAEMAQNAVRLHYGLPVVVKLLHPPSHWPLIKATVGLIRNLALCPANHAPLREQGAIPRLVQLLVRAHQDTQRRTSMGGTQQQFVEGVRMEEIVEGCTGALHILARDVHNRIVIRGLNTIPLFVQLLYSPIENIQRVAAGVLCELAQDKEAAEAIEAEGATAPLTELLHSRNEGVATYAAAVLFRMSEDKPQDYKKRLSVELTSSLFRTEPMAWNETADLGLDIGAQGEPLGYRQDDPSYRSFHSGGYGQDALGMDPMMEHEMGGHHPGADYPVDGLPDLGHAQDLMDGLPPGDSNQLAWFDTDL
# CHI Log D procedure = type: physicochemical; conditions: for CHI Log D: pH 7.4; for chromatographic logD: pH 7.4, CHI Log D
# Solubility in PBS = type: physicochemical
# How it was run: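 Solubility is derived from HPLC peak areas: the ratio of the PBS supernatant peak to a 50 μM DMSO peptide peak, times 50 uM.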
# [2] = biological target: T2, beta-catenin/TCF4 engagement (Homo sapiens, UniProt P35222); experiment: Nano-BRET target engagement assay (B-cat-Halo & TCF4-Luc in HEK293 cells); type: cell-based
# T2 construct: expressed in transfected cells; host or cells: HEK293
# T2 sequence (P35222 1-781): T1 sequence (P35222 1-781)
# [3] = fluorescence polarization, read-out: beta-Catenin FP IC50
# [4] = absolute IC50, read-out: NanoBRET Abs IC50
Compound,"IC50 [1, 3] [nM]",IC50 ([1]; read-out: FP EC50) [nM],CHI Log D (CHI Log D procedure),Solubility (Solubility in PBS) [µM],"IC50 [2, 4] [nM]",IC50 ([1]; read-out: beta-Catenin FP IC50) [nM],chromatographic logD (CHI Log D procedure),Solubility (Solubility in PBS; Solubility (uM)) [µM],"inhibition at 10 µM ([2]; HEK293, @ 10 uM, read-out: NanoBRET % inh @ 10 uM) [%]",IC50 ([2]; read-out: NanoBRET Abs IC50) [nM],IC50 ([2]; read-out: NanoBRET IC50) [nM],"IC50 ([1]; fluorescence polarization, beta-catenin, read-out: FP EC50) [nM]"
"CC[C@H](C)[C@@H]1NC(=O)[C@H](CC(=O)O)NC(=O)[C@]2(CC=CCCCC3(CCCC=CCCCCCC[C@@](C)(C(=O)N[C@@H](Cc4ccccc4)C(=O)N[C@@H](Cc4csc5ccccc45)C(=O)N[C@@H](CCC(N)=O)C(N)=O)NC(=O)[C@H](CCC(N)=O)NC(=O)[C@H](Cc4ccccc4)NC(=O)[C@H](C)NC(=O)[C@H](CCC(N)=O)NC(=O)[C@H](CCC(=O)O)NC(=O)[C@H](CC(=O)O)NC3=O)NC1=O)CCCN2C(C)=O (stereo partly drawn) [I-654, Ac-PL3-Asp-Ile-B5-Asp-Glu-Gln-Ala-Phe-Gln-S8-Phe-BztA-Gln-NH2]",20,20,2.121,47,15000,,,,,,,
"CC(=O)N1CCC[C@]12CC=CCCCC1(CCCC=CCCCOC(=O)N3CC[C@@](C(=O)N[C@@H](Cc4ccccc4Cl)C(=O)N[C@@H](Cc4csc5ccccc45)C(=O)N[C@@H](Cc4c[nH]cn4)C(N)=O)(C3)NC(=O)[C@H](CC(N)=O)NC(=O)[C@H](Cc3ccccc3)NC(=O)[C@H](C)NC(=O)[C@H](C)NC(=O)[C@H](CC(=O)O)NC(=O)[C@H](CC(=O)O)NC1=O)NC(=O)[C@H](CC(C)(C)C)NC(=O)[C@H](CC(=O)O)NC2=O (stereo partly drawn) [I-784, Ac-PL3-Asp-Npg-B5-Asp-Asp-Ala-Ala-Phe-Asn-PyrS2-2C1F-BztA-His-NH2]",,,,,,6,2.29,21,35.1,14500,12100,
"CC[C@H](C)[C@@H]1NC(=O)[C@H](CC(=O)O)NC(=O)[C@]2(CC=CCCCC3(CCCC=CCCCCCC[C@@](C)(C(=O)N[C@@H](Cc4ccccc4)C(=O)N[C@@H](Cc4csc5ccccc45)C(=O)N[C@@H](CCC(N)=O)C(N)=O)NC(=O)[C@H](CC(N)=O)NC(=O)[C@H](Cc4ccccc4)NC(=O)[C@H](C)NC(=O)[C@H](C)NC(=O)[C@H](CCC(=O)O)NC(=O)[C@H](CC(=O)O)NC3=O)NC1=O)CCCN2C(C)=O (stereo partly drawn) [I-557, Ac-PL3-Asp-Ile-B5-Asp-Glu-Ala-Ala-Phe-Asn-S8-Phe-BztA-Gln-NH2]",35,,,,16900,,2.39,47,,,,
"CC(=O)N1CCC[C@]12CC=CCCCC1(CCCC=CCCCCCC[C@@](C)(C(=O)N[C@@H](Cc3ccccc3)C(=O)N[C@@H](Cc3csc4ccccc34)C(=O)N[C@@H](CCC(N)=O)C(N)=O)NC(=O)[C@H](CCC(N)=O)NC(=O)[C@H](Cc3ccccc3)NC(=O)[C@H](C)NC(=O)[C@H](C)NC(=O)[C@H](CCC(=O)O)NC(=O)[C@H](CC(=O)O)NC1=O)NC(=O)[C@H](CC(C)(C)C)NC(=O)[C@H](CC(=O)O)NC2=O (stereo partly drawn) [I-544, Ac-PL3-Asp-Npg-B5-Asp-Glu-Ala-Ala-Phe-Gln-S8-Phe-BztA-Gln-NH2]",24,,,,4600,,2.48,48,,,,
"CC(=O)N1CCC[C@]12CC=CCCCC1(CCCC=CCCCCCC[C@@](C)(C(=O)N[C@@H](Cc3ccsc3)C(=O)N[C@@H](Cc3csc4ccccc34)C(=O)N[C@@H](CCC(N)=O)C(N)=O)NC(=O)[C@H](CC(N)=O)NC(=O)[C@H](Cc3ccccc3)NC(=O)[C@H](C)NC(=O)[C@H](C)NC(=O)[C@H](CC(=O)O)NC(=O)[C@H](CC(=O)O)NC1=O)NC(=O)[C@H](CC(C)C)NC(=O)[C@H](CC(=O)O)NC2=O (stereo partly drawn) [I-681, Ac-PL3-Asp-Leu-B5-Asp-Asp-Ala-Ala-Phe-Asn-S8-3Thi-BztA-Gln-NH2]",12,12,2.273,48,25100,,,,,,,
"CC(=O)N1CCC[C@]12CC=CCCCC1(CCCC=CCCCOC(=O)N3CC[C@@](C(=O)N[C@@H](Cc4ccccc4Cl)C(=O)N[C@@H](Cc4csc5ccccc45)C(=O)N[C@@H](CCC(N)=O)C(N)=O)(C3)NC(=O)[C@H](CC(C)C)NC(=O)[C@H](Cc3ccccc3)NC(=O)[C@H](C)NC(=O)[C@H](C)NC(=O)[C@H](CC(=O)O)NC(=O)[C@H](CC(=O)O)NC1=O)NC(=O)[C@H](Cc1ccc3ccccc3c1)NC(=O)[C@H](CC(=O)O)NC2=O (stereo partly drawn) [I-1111, Ac-PL3-Asp-2NapA-B5-Asp-Asp-Ala-Ala-Phe-Leu-PyrS2-2C1F-BztA-Gln-NH2]",,,,10,,28,2.36,,,> 20000,,
"CC(=O)N1CCC[C@]12CC=CCCCC1(CCCC=CCCCCCC[C@@](C)(C(=O)N[C@@H](Cc3ccccc3)C(=O)N[C@@H](Cc3csc4ccccc34)C(=O)N[C@@H](CO)C(N)=O)NC(=O)[C@H](CC(N)=O)NC(=O)[C@H](Cc3ccccc3)NC(=O)[C@H](C)NC(=O)[C@H](C)NC(=O)[C@H](CCC(=O)O)NC(=O)[C@H](CC(=O)O)NC1=O)NC(=O)[C@H](CC(C)C)NC(=O)[C@H](CC(=O)O)NC2=O (stereo partly drawn) [I-751, Ac-PL3-Asp-Leu-B5-Asp-Glu-Ala-Ala-Phe-Asn-S8-Phe-BztA-Ser-NH2]",29,29,2.513,48,7100,,,,,,,
"CC(=O)N1CCC[C@]12CC=CCCCC1(CCCC=CCCCOC(=O)N3CC[C@@](C(=O)N[C@@H](Cc4ccccc4)C(=O)N[C@@H](Cc4csc5ccccc45)C(=O)N[C@@H](Cc4c[nH]cn4)C(N)=O)(C3)NC(=O)[C@H](CC(N)=O)NC(=O)[C@H](Cc3ccccc3)NC(=O)[C@H](C)NC(=O)[C@H](C)NC(=O)[C@H](CCC(=O)O)NC(=O)[C@H](CC(=O)O)NC1=O)NC(=O)[C@H](CC(C)(C)C)NC(=O)[C@H](CC(=O)O)NC2=O (stereo partly drawn) [I-692, Ac-PL3-Asp-Npg-B5-Asp-Glu-Ala-Ala-Phe-Asn-PyrS2-Phe-BztA-His-NH2]",9,9,2.12,38,25600,,,,,,,
"CC(=O)N1CCC[C@]12CC=CCCCC1(CCCC=CCCCOC(=O)N3CC[C@@](C(=O)N[C@@H](Cc4ccsc4)C(=O)N[C@@H](Cc4csc5ccccc45)C(=O)N[C@@H](CCC(N)=O)C(N)=O)(C3)NC(=O)[C@H](CC(N)=O)NC(=O)[C@H](Cc3ccccc3)NC(=O)[C@H](C)NC(=O)[C@H](C)NC(=O)[C@H](CC(N)=O)NC(=O)[C@H](CC(=O)O)NC1=O)NC(=O)[C@H](CC(C)(C)C)NC(=O)[C@H](CC(=O)O)NC2=O (stereo partly drawn) [I-836, Ac-PL3-Asp-Npg-B5-Asp-Asn-Ala-Ala-Phe-Asn-PyrS2-3Thi-BztA-Gln-NH2]",,,,,16900,11,2.22,41,,,,
"CC(=O)N1CCC[C@]12CC=CCCCC1(CCCC=CCCCCCC[C@@](C)(C(=O)N[C@@H](Cc3ccccc3Cl)C(=O)N[C@@H](Cc3csc4ccccc34)C(=O)N[C@H](C(N)=O)[C@@H](C)O)NC(=O)[C@H]([C@@H](C)O)NC(=O)[C@H](Cc3ccccc3)NC(=O)[C@H](C)NC(=O)[C@H](C)NC(=O)[C@H](CCC(=O)O)NC(=O)[C@H](CC(=O)O)NC1=O)NC(=O)[C@H](CC(C)(C)C)NC(=O)[C@H](CC(=O)O)NC2=O (stereo partly drawn) [I-1091, Ac-PL3-Asp-Npg-B5-Asp-Glu-Ala-Ala-Phe-Thr-S8-2C1F-BztA-Thr-NH2]",,,,,,27,3.04,33,,11400,,
"CC(=O)N1CCC[C@]12CC=CCCCC1(CCCC=CCCCCCC[C@@](C)(C(=O)N[C@@H](Cc3ccccc3)C(=O)N[C@@H](Cc3csc4ccccc34)C(=O)N[C@@H](Cc3c[nH]cn3)C(N)=O)NC(=O)[C@H](CC(N)=O)NC(=O)[C@H](Cc3ccccc3)NC(=O)[C@H](C)NC(=O)[C@H](C)NC(=O)[C@H](CC(=O)O)NC(=O)[C@H](CC(=O)O)NC1=O)NC(=O)[C@H](CC(C)(C)C)NC(=O)[C@H](CC(=O)O)NC2=O (stereo partly drawn) [I-582, Ac-PL3-Asp-Npg-B5-Asp-Asp-Ala-Ala-Phe-Asn-S8-Phe-BztA-His-NH2]",17.5,,,,15800,,2.5,22,,,,
"CC(=O)N1CCC[C@]12CC=CCCCC1(CCCC=CCCCCCC[C@@](C)(C(=O)N[C@@H](Cc3ccccc3Cl)C(=O)N[C@@H](Cc3csc4ccccc34)C(=O)N[C@@H](CCC(N)=O)C(N)=O)NC(=O)[C@H]([C@@H](C)O)NC(=O)[C@H](Cc3ccccc3)NC(=O)[C@H](C)NC(=O)[C@H](C)NC(=O)[C@H](CCC(=O)O)NC(=O)[C@H](CC(=O)O)NC1=O)NC(=O)[C@H](CC(C)(C)C)NC(=O)[C@H](CC(=O)O)NC2=O (stereo partly drawn) [I-1089, Ac-PL3-Asp-Npg-B5-Asp-Glu-Ala-Ala-Phe-Thr-S8-2C1F-BztA-Gln-NH2]",,,2.826,43,,12,,,,8900,,12
